Experiments:
Test in all cases: radiometric filter-binding kinase assay
BTK (human) = BTK (human) (UniProt Q06187)
MAPKAPK5 (human) = MAPKAPK5 (human) (UniProt Q8IW41)
INSR (human) = INSR (human) (UniProt P06213)
MAPK9 (human) = MAPK9 (human) (UniProt P45984)
PRKCA (human) = PRKCA (human) (UniProt P17252)
HIPK1 (human) = HIPK1 (human) (UniProt Q86Z02)
FLT1 (human) = FLT1 (human) (UniProt P17948)
GCK (human) = GCK (human) (UniProt Q12851)
BRSK2 (human) = BRSK2 (human) (UniProt Q8IWQ3)
EPHB4 (human) = EPHB4 (human) (UniProt P54760)
DYRK2 (human) = DYRK2 (human) (UniProt Q92630)
CaMK1 (human) = CaMK1 (human) (UniProt Q14012)
YES1 (human) = YES1 (human) (UniProt P07947); conditions: compound 1.0 µM
PIM1 (human) = PIM1 (human) (UniProt P11309)
MAP3K1 (human) = MAP3K1 (human) (UniProt Q13233)
EPHB2 (human) = EPHB2 (human) (UniProt P29323); conditions: compound 1.0 µM
MAP3K11 (human) = MAP3K11 (human) (UniProt Q16584)
BRSK1 (human) = BRSK1 (human) (UniProt Q8TDC3)
MAP2K1 (human) = MAP2K1 (human) (UniProt Q02750)
MAPK11 (human) = MAPK11 (human) (UniProt Q15759)
STK3 (human) = STK3 (human) (UniProt Q13188)
MAPK10 (human) = MAPK10 (human) (UniProt P53779)
HIPK2 (human) = HIPK2 (human) (UniProt Q9H2X6)
EPHA2 (human) = EPHA2 (human) (UniProt P29317)
TAOK1 (human) = TAOK1 (human) (UniProt Q7L7X3)
MAP3K5 (human) = MAP3K5 (human) (UniProt Q99683)
MARK3 (human) = MARK3 (human) (UniProt P27448)
JAK2 JH1 JH2 (human) = JAK2 JH1 JH2 (human) (UniProt O60674)
EPHB1 (human) = EPHB1 (human) (UniProt P54762)
AURKA (human) = AURKA (human) (UniProt O14965); conditions: compound 1.0 µM
[1] = system: AKT1 (human), P31749 [S473D]
SYK (human) = SYK (human) (UniProt P43405)
[2] = system: RPS6KB1 (human), P23443 [T412E]
TBK1 (human) = TBK1 (human) (UniProt Q9UHD2)
MAPK8 (human) = MAPK8 (human) (UniProt P45983)
DYRK3 (human) = DYRK3 (human) (UniProt O43781)

Chain of BRSK2 (human) (Q8IWQ3 whole entry, looked up): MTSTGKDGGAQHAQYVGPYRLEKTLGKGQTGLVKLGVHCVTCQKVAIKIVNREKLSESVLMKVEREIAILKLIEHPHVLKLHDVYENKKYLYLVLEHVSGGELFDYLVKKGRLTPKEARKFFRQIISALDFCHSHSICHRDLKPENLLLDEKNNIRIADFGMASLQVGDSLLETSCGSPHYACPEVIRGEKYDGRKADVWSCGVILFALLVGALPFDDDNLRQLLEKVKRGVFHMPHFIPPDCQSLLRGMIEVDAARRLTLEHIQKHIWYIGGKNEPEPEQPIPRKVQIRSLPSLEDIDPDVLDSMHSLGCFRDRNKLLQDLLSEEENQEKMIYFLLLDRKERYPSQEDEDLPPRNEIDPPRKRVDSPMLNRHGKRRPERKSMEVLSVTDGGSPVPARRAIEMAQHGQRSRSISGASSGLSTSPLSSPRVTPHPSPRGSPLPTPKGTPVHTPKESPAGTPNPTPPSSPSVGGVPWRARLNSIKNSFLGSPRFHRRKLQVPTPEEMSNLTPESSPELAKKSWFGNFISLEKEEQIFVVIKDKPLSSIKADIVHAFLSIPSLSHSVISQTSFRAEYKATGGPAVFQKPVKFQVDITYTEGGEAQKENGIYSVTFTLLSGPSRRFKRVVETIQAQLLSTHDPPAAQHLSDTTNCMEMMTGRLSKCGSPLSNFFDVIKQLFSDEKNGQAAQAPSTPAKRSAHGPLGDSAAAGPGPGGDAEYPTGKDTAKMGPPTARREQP
Chain of MAPK8 (human) (P45983 whole entry, looked up): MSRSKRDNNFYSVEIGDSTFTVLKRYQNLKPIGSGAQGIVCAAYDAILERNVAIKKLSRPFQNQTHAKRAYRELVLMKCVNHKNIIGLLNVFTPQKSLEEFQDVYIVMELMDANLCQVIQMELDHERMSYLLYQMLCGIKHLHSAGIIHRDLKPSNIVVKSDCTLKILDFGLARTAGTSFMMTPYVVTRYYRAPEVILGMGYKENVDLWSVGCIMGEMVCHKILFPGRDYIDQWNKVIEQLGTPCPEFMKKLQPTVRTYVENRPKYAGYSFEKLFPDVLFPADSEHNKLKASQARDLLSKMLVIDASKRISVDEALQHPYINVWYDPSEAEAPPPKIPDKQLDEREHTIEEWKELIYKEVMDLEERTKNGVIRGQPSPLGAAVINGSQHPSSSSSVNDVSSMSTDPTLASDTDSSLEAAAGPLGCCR
Chain of BRSK1 (human) (Q8TDC3 whole entry, looked up): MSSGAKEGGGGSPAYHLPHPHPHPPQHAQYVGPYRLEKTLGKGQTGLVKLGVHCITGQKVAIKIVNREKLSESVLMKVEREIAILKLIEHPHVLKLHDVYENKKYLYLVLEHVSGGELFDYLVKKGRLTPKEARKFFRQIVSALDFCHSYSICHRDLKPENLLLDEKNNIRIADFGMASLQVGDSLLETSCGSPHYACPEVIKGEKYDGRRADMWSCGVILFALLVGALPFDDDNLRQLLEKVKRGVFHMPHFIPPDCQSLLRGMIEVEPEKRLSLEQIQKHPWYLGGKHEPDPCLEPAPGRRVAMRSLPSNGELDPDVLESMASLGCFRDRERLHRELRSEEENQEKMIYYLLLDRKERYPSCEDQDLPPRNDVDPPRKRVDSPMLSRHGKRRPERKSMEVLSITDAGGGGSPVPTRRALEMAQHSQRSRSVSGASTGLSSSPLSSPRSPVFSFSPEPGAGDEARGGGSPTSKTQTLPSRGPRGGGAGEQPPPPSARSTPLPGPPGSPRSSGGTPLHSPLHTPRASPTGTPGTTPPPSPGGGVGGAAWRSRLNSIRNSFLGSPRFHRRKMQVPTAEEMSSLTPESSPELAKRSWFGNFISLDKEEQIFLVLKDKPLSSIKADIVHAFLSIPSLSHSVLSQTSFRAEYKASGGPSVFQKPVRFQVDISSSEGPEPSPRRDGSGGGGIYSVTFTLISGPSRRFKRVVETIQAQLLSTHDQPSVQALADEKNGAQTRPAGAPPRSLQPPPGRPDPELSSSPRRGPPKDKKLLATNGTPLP
Chain of MARK3 (human) (P27448 whole entry, looked up): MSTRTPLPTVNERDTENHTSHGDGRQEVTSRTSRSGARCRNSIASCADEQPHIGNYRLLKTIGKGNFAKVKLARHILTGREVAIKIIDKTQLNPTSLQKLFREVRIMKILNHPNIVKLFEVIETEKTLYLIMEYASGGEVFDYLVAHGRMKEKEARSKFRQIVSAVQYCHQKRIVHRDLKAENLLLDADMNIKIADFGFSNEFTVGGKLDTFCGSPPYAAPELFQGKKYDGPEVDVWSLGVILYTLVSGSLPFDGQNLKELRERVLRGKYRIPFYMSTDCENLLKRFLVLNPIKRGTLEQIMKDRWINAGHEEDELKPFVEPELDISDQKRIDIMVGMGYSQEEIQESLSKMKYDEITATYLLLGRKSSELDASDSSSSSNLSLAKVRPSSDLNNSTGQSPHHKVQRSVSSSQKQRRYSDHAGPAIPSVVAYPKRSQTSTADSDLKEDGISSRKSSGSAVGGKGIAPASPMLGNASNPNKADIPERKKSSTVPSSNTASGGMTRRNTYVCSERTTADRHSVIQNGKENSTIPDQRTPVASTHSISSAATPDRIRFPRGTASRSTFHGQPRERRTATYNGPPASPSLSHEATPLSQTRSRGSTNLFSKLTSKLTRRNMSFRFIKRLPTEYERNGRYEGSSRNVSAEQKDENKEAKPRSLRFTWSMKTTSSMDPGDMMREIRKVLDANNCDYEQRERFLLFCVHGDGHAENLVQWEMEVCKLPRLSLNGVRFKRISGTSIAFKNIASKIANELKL
Chain of MAP2K1 (human) (Q02750 whole entry, looked up): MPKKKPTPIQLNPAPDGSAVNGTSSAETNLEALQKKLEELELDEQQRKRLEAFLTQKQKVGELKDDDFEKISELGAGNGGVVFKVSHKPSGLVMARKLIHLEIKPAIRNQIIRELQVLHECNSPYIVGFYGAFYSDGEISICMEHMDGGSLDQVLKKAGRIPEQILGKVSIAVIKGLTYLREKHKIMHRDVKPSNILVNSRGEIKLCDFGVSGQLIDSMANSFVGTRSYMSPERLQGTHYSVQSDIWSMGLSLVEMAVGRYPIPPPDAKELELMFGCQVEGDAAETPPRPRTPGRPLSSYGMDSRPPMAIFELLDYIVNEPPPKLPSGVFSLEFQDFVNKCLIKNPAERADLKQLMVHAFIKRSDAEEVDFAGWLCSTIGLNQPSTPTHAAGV
Chain of INSR (human) (P06213 whole entry, looked up): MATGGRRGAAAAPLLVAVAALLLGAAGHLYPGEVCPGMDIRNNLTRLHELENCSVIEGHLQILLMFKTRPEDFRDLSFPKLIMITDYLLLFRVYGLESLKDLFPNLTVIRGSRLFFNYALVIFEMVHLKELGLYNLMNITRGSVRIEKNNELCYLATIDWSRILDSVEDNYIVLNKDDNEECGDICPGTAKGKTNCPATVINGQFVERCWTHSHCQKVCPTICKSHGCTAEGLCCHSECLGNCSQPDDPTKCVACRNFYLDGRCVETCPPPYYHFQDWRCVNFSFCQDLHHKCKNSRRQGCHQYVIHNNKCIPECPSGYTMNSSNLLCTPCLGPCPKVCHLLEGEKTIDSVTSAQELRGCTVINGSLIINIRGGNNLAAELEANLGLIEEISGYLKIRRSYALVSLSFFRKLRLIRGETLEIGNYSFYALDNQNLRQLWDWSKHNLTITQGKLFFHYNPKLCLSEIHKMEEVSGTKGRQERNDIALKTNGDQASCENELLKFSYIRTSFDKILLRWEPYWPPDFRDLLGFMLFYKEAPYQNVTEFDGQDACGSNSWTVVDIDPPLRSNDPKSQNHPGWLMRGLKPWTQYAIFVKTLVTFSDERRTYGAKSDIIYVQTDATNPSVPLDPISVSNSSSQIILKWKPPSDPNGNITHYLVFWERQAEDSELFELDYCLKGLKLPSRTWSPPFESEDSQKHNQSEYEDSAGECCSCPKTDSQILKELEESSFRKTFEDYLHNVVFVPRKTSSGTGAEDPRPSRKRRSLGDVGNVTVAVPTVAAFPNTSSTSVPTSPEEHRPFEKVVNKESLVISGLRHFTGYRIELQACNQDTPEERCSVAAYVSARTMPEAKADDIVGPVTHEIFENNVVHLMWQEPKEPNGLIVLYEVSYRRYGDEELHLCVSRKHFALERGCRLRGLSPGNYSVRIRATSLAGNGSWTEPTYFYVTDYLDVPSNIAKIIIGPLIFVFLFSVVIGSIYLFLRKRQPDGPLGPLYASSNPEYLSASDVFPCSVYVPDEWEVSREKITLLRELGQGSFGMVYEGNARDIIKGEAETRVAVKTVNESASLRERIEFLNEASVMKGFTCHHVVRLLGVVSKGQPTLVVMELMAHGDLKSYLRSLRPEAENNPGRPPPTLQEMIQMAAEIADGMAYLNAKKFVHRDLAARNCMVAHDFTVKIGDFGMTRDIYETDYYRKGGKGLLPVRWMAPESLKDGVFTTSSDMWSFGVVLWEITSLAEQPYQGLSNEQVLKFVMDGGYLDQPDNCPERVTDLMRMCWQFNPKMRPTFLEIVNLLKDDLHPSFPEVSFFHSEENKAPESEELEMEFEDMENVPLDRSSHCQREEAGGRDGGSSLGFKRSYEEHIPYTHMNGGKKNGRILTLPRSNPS
Chain of CaMK1 (human) (Q14012 whole entry, looked up): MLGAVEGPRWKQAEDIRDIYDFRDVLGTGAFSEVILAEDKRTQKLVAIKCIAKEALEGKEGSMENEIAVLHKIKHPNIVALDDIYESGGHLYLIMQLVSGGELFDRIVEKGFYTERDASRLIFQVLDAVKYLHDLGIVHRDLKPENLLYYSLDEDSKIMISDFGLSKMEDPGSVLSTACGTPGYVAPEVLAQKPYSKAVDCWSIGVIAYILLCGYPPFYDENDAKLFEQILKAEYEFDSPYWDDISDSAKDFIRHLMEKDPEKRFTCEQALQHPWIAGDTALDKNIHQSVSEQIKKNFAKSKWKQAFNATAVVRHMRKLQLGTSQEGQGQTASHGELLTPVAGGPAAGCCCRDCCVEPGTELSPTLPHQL

COc1cc(O)c2c(c1)/C=C/C[C@H](O)[C@H](O)C(=O)/C=C\C[C@H](C)OC2=O
residual activity (BTK (human); compound 0.1 µM): 90%
residual activity (BTK (human); compound 1.0 µM): 93%
residual activity (MAPKAPK5 (human); compound 0.1 µM): 66%
residual activity (MAPKAPK5 (human); compound 1.0 µM): 14%
residual activity (INSR (human); compound 0.1 µM): 110%
residual activity (INSR (human); compound 1.0 µM): 94%
residual activity (MAPK9 (human); compound 0.1 µM): 109%
residual activity (MAPK9 (human); compound 1.0 µM): 81%
residual activity (PRKCA (human); compound 0.1 µM): 107%
residual activity (PRKCA (human); compound 1.0 µM): 85%
residual activity (HIPK1 (human); compound 0.1 µM): 102%
residual activity (HIPK1 (human); compound 1.0 µM): 98%
residual activity (FLT1 (human); compound 0.1 µM): 8%
residual activity (FLT1 (human); compound 1.0 µM): 13%
residual activity (GCK (human); compound 0.1 µM): 121%
residual activity (GCK (human); compound 1.0 µM): 80%
residual activity (BRSK2 (human); compound 0.1 µM): 84%
residual activity (BRSK2 (human); compound 1.0 µM): 88%
residual activity (EPHB4 (human); compound 0.1 µM): 87%
residual activity (EPHB4 (human); compound 1.0 µM): 90%
residual activity (DYRK2 (human); compound 0.1 µM): 114%
residual activity (DYRK2 (human); compound 1.0 µM): 89%
residual activity (CaMK1 (human); compound 0.1 µM): 88%
residual activity (CaMK1 (human); compound 1.0 µM): 105%
residual activity (YES1 (human)): 60%
residual activity (PIM1 (human); compound 0.1 µM): 102%
residual activity (PIM1 (human); compound 1.0 µM): 72%
residual activity (MAP3K1 (human); compound 0.1 µM): 107%
residual activity (MAP3K1 (human); compound 1.0 µM): 92%
residual activity (EPHB2 (human)): 75%
residual activity (MAP3K11 (human); compound 0.1 µM): 114%
residual activity (MAP3K11 (human); compound 1.0 µM): 79%
residual activity (BRSK1 (human); compound 0.1 µM): 113%
residual activity (BRSK1 (human); compound 1.0 µM): 90%
residual activity (MAP2K1 (human); compound 0.1 µM): 13%
residual activity (MAP2K1 (human); compound 1.0 µM): 2%
residual activity (MAPK11 (human); compound 0.1 µM): 90%
residual activity (MAPK11 (human); compound 1.0 µM): 72%
residual activity (STK3 (human); compound 0.1 µM): 120%
residual activity (STK3 (human); compound 1.0 µM): 89%
residual activity (MAPK10 (human); compound 0.1 µM): 107%
residual activity (MAPK10 (human); compound 1.0 µM): 90%
residual activity (HIPK2 (human); compound 0.1 µM): 98%
residual activity (HIPK2 (human); compound 1.0 µM): 82%
residual activity (EPHA2 (human); compound 0.1 µM): 99%
residual activity (EPHA2 (human); compound 1.0 µM): 55%
residual activity (TAOK1 (human); compound 0.1 µM): 103%
residual activity (TAOK1 (human); compound 1.0 µM): 66%
residual activity (MAP3K5 (human); compound 0.1 µM): 91%
residual activity (MAP3K5 (human); compound 1.0 µM): 95%
residual activity (MARK3 (human); compound 0.1 µM): 116%
residual activity (MARK3 (human); compound 1.0 µM): 77%
residual activity (JAK2 JH1 JH2 (human); compound 0.1 µM): 108%
residual activity (JAK2 JH1 JH2 (human); compound 1.0 µM): 75%
residual activity (EPHB1 (human); compound 0.1 µM): 99%
residual activity (EPHB1 (human); compound 1.0 µM): 81%
residual activity (AURKA (human)): 105%
residual activity ([1]; compound 0.1 µM): 111%
residual activity ([1]; compound 1.0 µM): 91%
residual activity (SYK (human); compound 0.1 µM): 88%
residual activity (SYK (human); compound 1.0 µM): 77%
residual activity ([2]; compound 0.1 µM): 112%
residual activity ([2]; compound 1.0 µM): 82%
residual activity (TBK1 (human); compound 0.1 µM): 105%
residual activity (TBK1 (human); compound 1.0 µM): 102%
residual activity (MAPK8 (human); compound 0.1 µM): 90%
residual activity (MAPK8 (human); compound 1.0 µM): 52%
residual activity (DYRK3 (human); compound 0.1 µM): 94%
residual activity (DYRK3 (human); compound 1.0 µM): 101%

Reference: the kinase profiling compilation of Christmann-Franck et al. (2016)
